In paper PMC11968843, “Sulphostin-inspired N-phosphonopiperidones as selective covalent DPP8 and DPP9 inhibitors” (Nature Communications, 2025):
Several values for one entry are separate records, joined by “and”; a condition that tells them apart may be missing. Identical values can stand only once. Like-named read-outs stand apart in the source and are kept apart here.

Assays:
Type in all cases: biochemical
DPP8 [1] = molecular target: T1, DPP8 (Homo sapiens, UniProt Q6V1X1); test: Time-dependent DPP8 inhibition kinetics (kobs, KI, kinact, kapp); details: for kobs: n=3
T1 construct: purchased Proteros Biostructures GmbH, Germany
T1 sequence (Q6V1X1 whole entry): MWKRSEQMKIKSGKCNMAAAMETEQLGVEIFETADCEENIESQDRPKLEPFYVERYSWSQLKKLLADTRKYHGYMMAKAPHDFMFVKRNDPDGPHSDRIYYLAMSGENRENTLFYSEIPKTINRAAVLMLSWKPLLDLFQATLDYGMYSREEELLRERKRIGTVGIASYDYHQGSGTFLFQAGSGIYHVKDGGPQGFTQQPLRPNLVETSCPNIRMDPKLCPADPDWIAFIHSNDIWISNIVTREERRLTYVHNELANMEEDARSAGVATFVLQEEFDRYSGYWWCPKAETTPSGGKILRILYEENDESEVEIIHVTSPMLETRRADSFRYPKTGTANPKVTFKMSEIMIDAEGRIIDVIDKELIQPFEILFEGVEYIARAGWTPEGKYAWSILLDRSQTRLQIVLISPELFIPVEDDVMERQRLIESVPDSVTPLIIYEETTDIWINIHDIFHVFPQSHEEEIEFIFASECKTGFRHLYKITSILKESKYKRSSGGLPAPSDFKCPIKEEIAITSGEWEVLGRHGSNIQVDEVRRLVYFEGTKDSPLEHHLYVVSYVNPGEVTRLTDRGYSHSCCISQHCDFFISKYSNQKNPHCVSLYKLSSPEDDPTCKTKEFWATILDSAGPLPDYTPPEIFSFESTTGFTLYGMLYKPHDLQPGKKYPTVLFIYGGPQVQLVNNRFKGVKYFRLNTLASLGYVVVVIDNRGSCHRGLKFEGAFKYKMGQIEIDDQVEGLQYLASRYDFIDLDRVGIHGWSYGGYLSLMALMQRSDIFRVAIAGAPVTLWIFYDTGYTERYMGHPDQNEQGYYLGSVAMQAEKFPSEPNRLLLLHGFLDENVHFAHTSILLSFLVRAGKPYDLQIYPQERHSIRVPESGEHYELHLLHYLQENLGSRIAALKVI
Procedure: (§1) To calculate the reaction rate of covalent bond formation between DPP proteins and inhibitor, kinact, KI and kapp was determined as previously described[30],[51]. Therefore, 250 µM GP-AMC was added simultaneously with a serial dilution of the inhibitor to 10 nM enzyme. Enzyme activity was measured for a maximum of 120 min at 30 °C, and fluorescence intensities were then plotted against time. Data was fitted to the following equation: Y=(vi/kobs)*(1−exp(−kobs*X)) using Graph-Pad Prism v10.2.3. The obtained pseudo-first-order rate constant was used to determine the maximum enzyme inhibition rate (kinact) and binding affinity (KI) by fitting the plot of kobs against inhibitor concentration to the following equation: Y=kinact/1+(KI/[I]) . The efficiency of covalent bond formation (kapp) was calculated by the ratio of kinact/KI. All measurements were performed in triplicates and error bars represent standard errors of the fit.

DPP8 [2] = molecular target: T1, DPP8; test: biochemical; details: for DPP8 activity [%]: replicates
Procedure: (§2) Enzyme activity of DPP4, DPP8, DPP9 (Proteros Biostructures GmbH, Germany) and PREP (Sigma Aldrich, USA) was determined by measuring the initial velocity of AMC release from the fluorogenic substrate GP-AMC (Sigma Aldrich, USA) using a Tecan Spark® 10 M multimode microplate reader (Tecan Group Ltd., Switzerland) in activity buffer (20 mM HEPES/KOH pH 7.3, 110 mM potassium acetate, 2 mM Mg acetate, 0.5 mM EGTA, 0.02% Tween 20, supplemented with 1 mM DTT) and a final volume of 20 μL for maximal 60 min at 30 °C. Prior to activity measurement, 10 nM enzyme was incubated for 45 min at 30 °C and gentle shaking with the inhibitor compounds in concentrations ranging from 0 to 100 μM. The compounds were dissolved in DMSO and diluted in activity buffer (final DMSO concentration: 1%). […] IC50 values were calculated using Graph-Pad Prism v10.2.3 using the equation: [Inhibitor] vs. response—Variable slope (four parameters). All measurements were performed in triplicates and error bars represent standard errors of the fit.

DPP4 [3] = molecular target: T2, DPP4 (Homo sapiens, UniProt P27487); test: biochemical; details: for DPP4 activity [%]: replicates
T2 construct: purchased Proteros Biostructures GmbH, Germany
T2 sequence (P27487 whole entry): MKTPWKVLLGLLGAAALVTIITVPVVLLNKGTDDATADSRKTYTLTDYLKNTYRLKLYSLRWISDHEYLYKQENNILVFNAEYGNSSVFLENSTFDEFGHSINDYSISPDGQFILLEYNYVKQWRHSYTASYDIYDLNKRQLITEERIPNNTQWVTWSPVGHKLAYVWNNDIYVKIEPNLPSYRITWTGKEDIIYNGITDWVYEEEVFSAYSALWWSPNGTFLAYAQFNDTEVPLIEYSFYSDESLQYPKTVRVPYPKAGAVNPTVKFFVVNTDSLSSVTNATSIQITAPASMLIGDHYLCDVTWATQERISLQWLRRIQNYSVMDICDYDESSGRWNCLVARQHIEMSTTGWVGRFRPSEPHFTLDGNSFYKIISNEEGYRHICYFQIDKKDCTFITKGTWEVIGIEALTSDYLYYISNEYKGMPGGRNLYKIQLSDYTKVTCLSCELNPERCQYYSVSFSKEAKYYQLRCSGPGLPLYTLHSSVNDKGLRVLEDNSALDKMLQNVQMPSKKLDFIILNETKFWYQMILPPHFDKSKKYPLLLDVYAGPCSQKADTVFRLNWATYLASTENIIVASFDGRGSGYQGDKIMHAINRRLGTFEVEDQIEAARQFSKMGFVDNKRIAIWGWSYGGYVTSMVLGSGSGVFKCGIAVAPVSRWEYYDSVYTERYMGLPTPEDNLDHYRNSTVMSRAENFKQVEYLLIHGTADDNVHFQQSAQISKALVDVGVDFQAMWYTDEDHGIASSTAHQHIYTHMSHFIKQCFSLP
Procedure: as §2

DPP9 [4] = molecular target: T3, DPP9 (Homo sapiens, UniProt Q86TI2); test: Time-dependent DPP9 inhibition kinetics (kobs, KI, kinact, kapp); design: purchased Proteros Biostructures GmbH, Germany; details: for kobs: n=3
T3 sequence (Q86TI2 whole entry): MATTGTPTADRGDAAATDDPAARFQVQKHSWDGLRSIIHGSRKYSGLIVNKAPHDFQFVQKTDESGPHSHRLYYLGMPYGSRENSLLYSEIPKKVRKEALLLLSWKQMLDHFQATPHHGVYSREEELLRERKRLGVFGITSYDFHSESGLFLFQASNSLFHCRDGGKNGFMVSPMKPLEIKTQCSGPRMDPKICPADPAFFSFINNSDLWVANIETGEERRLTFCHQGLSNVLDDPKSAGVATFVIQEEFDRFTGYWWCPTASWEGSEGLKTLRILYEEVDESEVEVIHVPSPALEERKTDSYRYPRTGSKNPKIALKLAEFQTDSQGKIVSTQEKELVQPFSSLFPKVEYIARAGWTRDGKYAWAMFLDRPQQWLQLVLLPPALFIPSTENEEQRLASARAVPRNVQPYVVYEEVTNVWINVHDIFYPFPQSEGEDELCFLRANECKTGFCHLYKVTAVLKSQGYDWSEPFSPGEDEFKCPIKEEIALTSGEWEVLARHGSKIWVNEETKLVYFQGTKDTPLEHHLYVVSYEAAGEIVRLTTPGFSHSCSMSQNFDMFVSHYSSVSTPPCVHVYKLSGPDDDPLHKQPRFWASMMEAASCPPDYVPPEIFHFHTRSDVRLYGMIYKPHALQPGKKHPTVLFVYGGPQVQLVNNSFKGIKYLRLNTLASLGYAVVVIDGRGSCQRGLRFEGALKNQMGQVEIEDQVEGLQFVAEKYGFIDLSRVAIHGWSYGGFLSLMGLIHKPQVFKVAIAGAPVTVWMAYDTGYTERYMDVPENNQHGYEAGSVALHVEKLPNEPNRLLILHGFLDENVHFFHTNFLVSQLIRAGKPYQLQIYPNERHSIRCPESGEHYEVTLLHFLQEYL
Procedure: as §1

DPP9 [5] = molecular target: T3, DPP9; test: biochemical; design: purchased Proteros Biostructures GmbH, Germany; details: for DPP9 activity [%]: replicates
Procedure: as §2

DPP4 [6] = molecular target: T2, DPP4; details: for kobs: n=3
Procedure: as §1, with “Therefore, 250 µM GP-AMC was added simultaneously with a serial dilution of the inhibitor to 10 nM enzyme.” left out

[7] = irreversible inhibition, fit of kobs vs inhibitor concentration

Structure (SMILES): C#CCCCP(=O)(OCC)N1CCCC(N)C1=O.O=C(O)C(F)(F)F (mixture of isomers) [Compound 9]
- kapp (DPP8 [1]; DPP8): 170.93 M⁻¹ s⁻¹
- kinact best fit (DPP8 [1]; DPP8): 0.0005333 s⁻¹
- kobs (DPP8 [1]; DPP8, c 312.5 nM): 5.77e-05 s⁻¹
- kobs (DPP8 [1]; DPP8, c 625 nM): 8.71e-05 s⁻¹
- kobs (DPP8 [1]; DPP8, c 2500 nM): 0.000239 s⁻¹
- KI (inactivation) (DPP8 [1]; DPP8, fit of kobs vs inhibitor concentration, read-out: KI best fit): 3.12 µM
- KI (inactivation) (DPP8 [1]; DPP8, read-out: KI best fit): 3.12 µM
- kinact DPP8 (DPP8 [1]; [7]): 0.00053 ± 0.00004 s⁻¹
- KI (inactivation) (DPP8 [1]; irreversible inhibition, fit of kobs vs inhibitor concentration, read-out: KI DPP8): 3.12 µM
- kapp DPP8 (DPP8 [1]; ratio kinact/KI): 171 M⁻¹ s⁻¹
- potency relative to C8-alkyne compound 10 (DPP8 [2]; DPP8/9 IC50, fold more potent): about 20 fold
- IC50 (DPP8 [2]; GP-AMC 250 µM, 10 nM enzyme, 45 min pre-incubation at 30 °C, read-out: IC50 DPP8): 668 ± 43 nM
- DPP8 activity [%] (DPP8 [2]; c 15.625 nM): 88.0116% and 95.2585% and 92.8653%
- DPP8 activity [%] (DPP8 [2]; c 31.25 nM): 98.7519% and 93.0125% and 99.7656%
- DPP8 activity [%] (DPP8 [2]; c 62.5 nM): 100.514% and 96.8883% and 98.9251%
- DPP8 activity [%] (DPP8 [2]; c 250 nM): 89.8086% and 92.0804% and 74.9743%
- DPP8 activity [%] (DPP8 [2]; c 312.5 nM): 76.3712% and 75.8504% and 60.7309%
- DPP8 activity [%] (DPP8 [2]; c 500 nM): 58.2452% and 66.831% and 55.6678%
- DPP8 activity [%] (DPP8 [2]; c 625 nM): 43.0971% and 49.0696% and 43.2225%
- DPP8 activity [%] (DPP8 [2]; c 1000 nM): 45.7318% and 41.4388% and 38.9079%
- DPP8 activity [%] (DPP8 [2]; c 1562.5 nM): 30.9827% and 31.9714% and 36.8996%
- DPP8 activity [%] (DPP8 [2]; c 2500 nM): 6.46% and 6.6893% and 8.361%
- DPP8 activity [%] (DPP8 [2]; c 3125 nM): 13.5787% and 24.1011% and 12.0301%
- DPP8 activity [%] (DPP8 [2]; c 5000 nM): 1.65% and 1.018% and 2.196%
- DPP8 activity [%] (DPP8 [2]; c 6250 nM): 4.899% and 5.3654% and 4.34%
- DPP8 activity [%] (DPP8 [2]; c 10000 nM): 0.2086% and 0.07371% and -0.1898%
- DPP8 activity [%] (DPP8 [2]; c 25000 nM): 1.765% and 1.4465% and 2.043%
- DPP8 activity [%] (DPP8 [2]; c 50000 nM): 2.554% and 1.757% and 1.4548%
- DPP8 activity [%] (DPP8 [2]; c 100000 nM): 1.577% and 1.418% and 1.083%
- potency relative to alkyl compound 5 (DPP8 [2]; fold more potent inhibitor): about 20 fold
- IC50 (DPP4 [3]; GP-AMC 250 µM, 10 nM enzyme, 45 min pre-incubation at 30 °C, read-out: IC50 DPP4): 2990 ± 970 nM
- DPP4 activity [%] (DPP4 [3]; c 1562.5 nM): 65.3186% and 69.0903% and 69.4857%
- DPP4 activity [%] (DPP4 [3]; c 3125 nM): 56.1551% and 36.739%
- DPP4 activity [%] (DPP4 [3]; c 6250 nM): 16.7655% and 22.4037% and 25.1515%
- DPP4 activity [%] (DPP4 [3]; c 25000 nM): 0.4601% and 0.7453% and 0.687%
- DPP4 activity [%] (DPP4 [3]; c 50000 nM): 0.1815% and 0.2139% and 0.1037%
- DPP4 activity [%] (DPP4 [3]; c 100000 nM): 0.1102% and 0.02592% and 0.006479%
- kapp (DPP9 [4]; DPP9): 68.49 M⁻¹ s⁻¹
- kinact best fit (DPP9 [4]; DPP9): 0.0003473 s⁻¹
- kobs (DPP9 [4]; DPP9, c 312.5 nM): 2.92e-05 s⁻¹
- kobs (DPP9 [4]; DPP9, c 625 nM): 4.78e-05 s⁻¹
- kobs (DPP9 [4]; DPP9, c 2500 nM): 0.000103 s⁻¹
- KI (inactivation) (DPP9 [4]; DPP9, fit of kobs vs inhibitor concentration, read-out: KI best fit): 5.07 µM
- KI (inactivation) (DPP9 [4]; DPP9, read-out: KI best fit): 5.07 µM
- kinact DPP9 (DPP9 [4]; [7]): 0.00035 ± 0.00007 s⁻¹
- KI (inactivation) (DPP9 [4]; irreversible inhibition, fit of kobs vs inhibitor concentration, read-out: KI DPP9): 5.07 µM
- kapp DPP9 (DPP9 [4]; ratio kinact/KI): 68 M⁻¹ s⁻¹
- IC50 (DPP9 [5]; GP-AMC 250 µM, 10 nM enzyme, 45 min pre-incubation at 30 °C, read-out: IC50 DPP9): 1570 ± 92 nM
- DPP9 activity [%] (DPP9 [5]; c 156.25 nM): 96.2584% and 100.319% and 101.85%
- DPP9 activity [%] (DPP9 [5]; c 312.5 nM): 100.858% and 91.3501% and 92.0123%
- DPP9 activity [%] (DPP9 [5]; c 625 nM): 84.7331% and 76.9427% and 84.4618%
- DPP9 activity [%] (DPP9 [5]; c 1562.5 nM): 49.8961% and 58.6041% and 49.6299%
- DPP9 activity [%] (DPP9 [5]; c 2500 nM): 31.5472% and 27.5156% and 32.2809%
- DPP9 activity [%] (DPP9 [5]; c 3125 nM): 24.6772% and 31.33% and 43.1829%
- DPP9 activity [%] (DPP9 [5]; c 5000 nM): 13.8796% and 12.6206% and 14.7121%
- DPP9 activity [%] (DPP9 [5]; c 6250 nM): 10.217% and 12.6398% and 8.944%
- DPP9 activity [%] (DPP9 [5]; c 10000 nM): 3.977% and 3.748% and 3.468%
- DPP9 activity [%] (DPP9 [5]; c 25000 nM): 1.6052% and 1.507% and 1.185%
- DPP9 activity [%] (DPP9 [5]; c 50000 nM): 0.4873% and 0.1919% and 0.2191%
- DPP9 activity [%] (DPP9 [5]; c 100000 nM): -0.1705% and -0.1127% and 0.03998%
- kapp (DPP4 [6]; DPP4): 481.66 M⁻¹ s⁻¹
- kinact best fit (DPP4 [6]; DPP4): 0.005372 s⁻¹
- kobs (DPP4 [6]; DPP4, c 6250 nM): 0.002232 s⁻¹
- kobs (DPP4 [6]; DPP4, c 25000 nM): 0.003486 s⁻¹
- kobs (DPP4 [6]; DPP4, c 50000 nM): 0.004579 s⁻¹
- KI (inactivation) (DPP4 [6]; DPP4, fit of kobs vs inhibitor concentration, read-out: KI best fit): 11.2 µM
- KI (inactivation) (DPP4 [6]; DPP4, read-out: KI best fit): 11.2 µM
- kinact DPP4 (DPP4 [6]; [7]): 0.00537 ± 0.00033 s⁻¹
- KI (inactivation) (DPP4 [6]; irreversible inhibition, fit of kobs vs inhibitor concentration, read-out: KI DPP4): 11.2 µM
- kapp DPP4 (DPP4 [6]; ratio kinact/KI): 482 M⁻¹ s⁻¹
